Source: ChEMBL document CHEMBL1201862, “PubChem BioAssay data set” (2004)
The source made the active and inactive calls.

Key:
[1] = inhibitors of Bluetongue virus cytopathic effect, confirmation, arbovirus, BSR cells (AID 1250); type: functional;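 further: protection from viral cytopathic effect measured as cell viability by ATP luminescence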
[2] = M. tuberculosis H37Rv growth inhibitors, H37Rv strain (AID 1626); type: functional
[3] = HIV-1 Env-mediated cell fusion inhibitors, dose response, CCR5-tropic Env (AID 2279); type: functional
[4] = target: Induced myeloid leukemia cell differentiation protein Mcl-1 (Homo sapiens, UniProt Q07820); type: functional
[5] = target: FAD-linked sulfhydryl oxidase ALR (Homo sapiens, UniProt P55789); assay: inhibitors of human ALR sulfhydryl oxidase, dose response, biochemical, H2O2 detection, luminescence, cherry-pick (AID 493248)
Sequence of FAD-linked sulfhydryl oxidase ALR (P55789 whole entry): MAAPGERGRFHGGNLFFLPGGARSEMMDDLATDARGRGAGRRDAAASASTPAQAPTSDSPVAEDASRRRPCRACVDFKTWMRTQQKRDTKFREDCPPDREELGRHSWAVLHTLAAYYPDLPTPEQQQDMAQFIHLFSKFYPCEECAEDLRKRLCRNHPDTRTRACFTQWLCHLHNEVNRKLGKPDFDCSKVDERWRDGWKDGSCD

Vero = Vero cell cytotoxicity, cytotoxicity control for flavivirus capping enzyme inhibitors (AID 588742); type: functional; settings: Chlorocebus sabaeus
Genome polyprotein = Genome polyprotein (dengue virus type 2, UniProt P29990); assay: Dengue-2 NS5 methyltransferase inhibitors, primary screen, biochemical, confirmation dose response (AID 588689); type: functional
Sequence of Genome polyprotein (P29990 2492-3391 limits assumed): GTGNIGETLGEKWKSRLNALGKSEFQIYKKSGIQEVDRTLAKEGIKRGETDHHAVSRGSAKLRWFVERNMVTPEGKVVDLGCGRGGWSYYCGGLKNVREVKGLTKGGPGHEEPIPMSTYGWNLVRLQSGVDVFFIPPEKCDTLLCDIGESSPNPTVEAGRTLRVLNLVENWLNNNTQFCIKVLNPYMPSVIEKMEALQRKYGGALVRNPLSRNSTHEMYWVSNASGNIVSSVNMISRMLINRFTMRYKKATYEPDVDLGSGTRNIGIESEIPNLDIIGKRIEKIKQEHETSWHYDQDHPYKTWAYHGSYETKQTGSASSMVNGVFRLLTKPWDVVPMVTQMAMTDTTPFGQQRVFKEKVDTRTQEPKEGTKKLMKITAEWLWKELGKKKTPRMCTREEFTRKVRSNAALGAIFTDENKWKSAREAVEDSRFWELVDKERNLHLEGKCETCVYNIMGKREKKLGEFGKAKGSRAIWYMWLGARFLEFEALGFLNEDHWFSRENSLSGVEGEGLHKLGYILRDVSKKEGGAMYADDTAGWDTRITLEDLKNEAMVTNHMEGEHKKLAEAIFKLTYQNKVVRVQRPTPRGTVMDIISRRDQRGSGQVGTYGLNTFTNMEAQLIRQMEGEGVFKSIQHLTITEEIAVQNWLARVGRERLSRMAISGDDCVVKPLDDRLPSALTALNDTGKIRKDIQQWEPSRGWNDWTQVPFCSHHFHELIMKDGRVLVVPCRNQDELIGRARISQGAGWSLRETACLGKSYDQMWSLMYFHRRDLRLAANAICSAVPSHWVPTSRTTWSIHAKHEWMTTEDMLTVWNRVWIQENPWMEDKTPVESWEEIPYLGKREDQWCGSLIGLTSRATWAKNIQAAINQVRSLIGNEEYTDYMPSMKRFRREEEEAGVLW

Bcl-2-like protein 10 = target: T1, Bcl-2-like protein 10 (Homo sapiens, UniProt Q9HD36); assay: Biochemical TR3 FP assay of Bcl-B inhibitor potency, EC50 (AID 1243); type: functional
T1 sequence (Q9HD36 whole entry): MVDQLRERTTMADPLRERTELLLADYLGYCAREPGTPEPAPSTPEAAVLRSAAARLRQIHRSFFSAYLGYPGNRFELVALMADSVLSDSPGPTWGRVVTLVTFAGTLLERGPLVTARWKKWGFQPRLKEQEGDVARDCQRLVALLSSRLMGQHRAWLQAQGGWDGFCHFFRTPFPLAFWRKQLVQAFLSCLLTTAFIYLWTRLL

[6] = target: Neuropeptide Y receptor type 1 (Homo sapiens, UniProt P25929); type: functional;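 further: HEK293 cells with a CNG channel challenged with NPY then isoproterenol; potency as antagonist that reverses NPY suppression of cAMP signal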
Sequence of Neuropeptide Y receptor type 1 (P25929 whole entry): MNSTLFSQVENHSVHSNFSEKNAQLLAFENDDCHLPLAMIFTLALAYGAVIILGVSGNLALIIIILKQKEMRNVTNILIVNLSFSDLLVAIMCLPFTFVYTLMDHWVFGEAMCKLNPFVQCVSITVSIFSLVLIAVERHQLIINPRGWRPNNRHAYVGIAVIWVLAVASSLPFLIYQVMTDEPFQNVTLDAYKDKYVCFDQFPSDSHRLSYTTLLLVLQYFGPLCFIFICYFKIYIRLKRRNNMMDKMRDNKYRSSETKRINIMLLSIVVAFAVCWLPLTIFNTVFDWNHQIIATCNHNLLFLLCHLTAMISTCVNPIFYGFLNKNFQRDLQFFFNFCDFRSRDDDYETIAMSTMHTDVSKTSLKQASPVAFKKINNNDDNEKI

[7] = target: Neuropeptide Y receptor type 2 (Homo sapiens, UniProt P49146); type: functional, cell-based;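 further: HEK293 cells expressing the receptor and a CNG channel; stimulus was NPY near EC95 followed by isoproterenol to raise cAMP; antagonist potency measured as restoring cAMP signal that NPY suppresses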
[8] = growth suppression of PTEN-null colon cells, dose response, cell-based, HCT116 PTEN knockout (AID 1047); type: functional;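 further: HCT116 colon tumor cells with PTEN knocked out; cells exposed to compound for 60 hours before readout; potency for loss of cell viability measured by luminescence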
[9] = growth suppression of beta-catenin-knockout colon cells, dose response, cell-based, HCT116, human colon tumor (AID 1045); type: functional;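 further: HCT116 colon tumor cells with beta catenin knocked out; cells exposed to compound for 60 hours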
[10] = target: Sphingosine 1-phosphate receptor 4 (Homo sapiens, UniProt O95977); assay: Fluorescence dose response cell-based high throughput screening assay for antagonists of the Sphingosine 1-Phosphate Receptor 4 (S1P4). [Related pubchem assays: 1524 (Confirmation in triplicates.), 1510 (Primary screen.)]; type: functional
Sequence of Sphingosine 1-phosphate receptor 4 (O95977 whole entry): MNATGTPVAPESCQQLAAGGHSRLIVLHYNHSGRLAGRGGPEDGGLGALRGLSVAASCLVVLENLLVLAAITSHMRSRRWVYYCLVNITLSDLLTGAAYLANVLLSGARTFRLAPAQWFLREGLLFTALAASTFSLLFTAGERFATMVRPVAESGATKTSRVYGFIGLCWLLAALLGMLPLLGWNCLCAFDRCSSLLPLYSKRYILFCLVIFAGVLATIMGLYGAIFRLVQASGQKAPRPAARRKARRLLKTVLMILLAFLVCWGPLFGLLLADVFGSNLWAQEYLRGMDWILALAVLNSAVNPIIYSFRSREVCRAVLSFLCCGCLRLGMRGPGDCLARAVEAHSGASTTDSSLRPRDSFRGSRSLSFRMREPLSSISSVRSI

[11] = target: Sphingosine 1-phosphate receptor 1 (Homo sapiens, UniProt P21453); type: functional;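 further: Tango beta-arrestin reporter U2OS cells stimulated with S1P near its EC80; inhibitor potency meaning antagonism of receptor activation by the natural agonist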
Sequence of Sphingosine 1-phosphate receptor 1 (P21453 whole entry): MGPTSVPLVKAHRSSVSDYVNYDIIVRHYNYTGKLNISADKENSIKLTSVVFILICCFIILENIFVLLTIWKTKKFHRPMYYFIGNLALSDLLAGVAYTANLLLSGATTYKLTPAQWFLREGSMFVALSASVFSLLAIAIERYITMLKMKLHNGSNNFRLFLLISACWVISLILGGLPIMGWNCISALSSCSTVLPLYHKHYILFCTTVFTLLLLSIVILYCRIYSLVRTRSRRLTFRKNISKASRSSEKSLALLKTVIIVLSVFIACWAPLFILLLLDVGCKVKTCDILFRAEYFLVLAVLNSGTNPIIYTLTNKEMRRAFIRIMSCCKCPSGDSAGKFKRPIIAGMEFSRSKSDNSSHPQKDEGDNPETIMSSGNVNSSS

[12] = target: T2, Microphthalmia-associated transcription factor (Homo sapiens, UniProt O75030); assay: TRPM1 promoter luciferase signal decrease, dose response, MITF inhibitor project, cell-based, SK-MEL-5, cherry-picked, set 3 (AID 493073); type: functional
T2 sequence (O75030 whole entry): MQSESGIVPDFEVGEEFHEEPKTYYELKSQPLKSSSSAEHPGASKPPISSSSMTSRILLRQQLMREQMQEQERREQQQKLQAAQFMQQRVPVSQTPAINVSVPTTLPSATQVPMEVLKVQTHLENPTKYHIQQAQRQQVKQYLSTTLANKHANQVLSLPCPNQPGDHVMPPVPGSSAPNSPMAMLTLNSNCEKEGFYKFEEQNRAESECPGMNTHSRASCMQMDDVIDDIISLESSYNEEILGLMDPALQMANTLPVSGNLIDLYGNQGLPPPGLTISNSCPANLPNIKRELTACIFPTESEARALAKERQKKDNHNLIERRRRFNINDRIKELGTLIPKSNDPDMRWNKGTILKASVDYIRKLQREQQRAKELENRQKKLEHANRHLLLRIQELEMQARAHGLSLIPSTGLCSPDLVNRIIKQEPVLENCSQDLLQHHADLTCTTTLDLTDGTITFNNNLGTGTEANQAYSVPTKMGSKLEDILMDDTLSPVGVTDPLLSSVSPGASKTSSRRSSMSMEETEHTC

[13] = inhibitors of PGC1a acetylation in cells, dose response, cell-based, cherry-picked samples (AID 720514); type: functional;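 further: potency may reflect raised or lowered acetylation signal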
NADPH oxidase 1 [14] = target: T3, NADPH oxidase 1 (Homo sapiens, UniProt Q9Y5S8); assay: Late-stage luminescence-based cell-based dose response assay to identify inhibitors of NADPH oxidase 1 (NOX1): Synthesized analogs.; type: functional
T3 sequence (Q9Y5S8 whole entry): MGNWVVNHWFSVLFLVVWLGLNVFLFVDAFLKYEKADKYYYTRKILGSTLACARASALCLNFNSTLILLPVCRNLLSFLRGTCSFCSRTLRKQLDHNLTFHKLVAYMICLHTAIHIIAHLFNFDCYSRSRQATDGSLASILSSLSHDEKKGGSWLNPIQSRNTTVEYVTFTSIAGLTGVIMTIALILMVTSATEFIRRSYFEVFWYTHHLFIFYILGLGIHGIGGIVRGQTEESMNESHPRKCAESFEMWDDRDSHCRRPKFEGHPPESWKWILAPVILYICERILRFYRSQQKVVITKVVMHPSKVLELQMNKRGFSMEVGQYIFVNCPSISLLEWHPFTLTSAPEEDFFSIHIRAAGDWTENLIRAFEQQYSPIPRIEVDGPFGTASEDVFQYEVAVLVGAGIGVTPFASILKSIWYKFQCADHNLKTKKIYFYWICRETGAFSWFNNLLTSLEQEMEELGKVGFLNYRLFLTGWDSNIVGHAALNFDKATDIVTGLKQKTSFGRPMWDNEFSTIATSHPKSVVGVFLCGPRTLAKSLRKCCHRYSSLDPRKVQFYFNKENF

NADPH oxidase 1 [15] = target: T3, NADPH oxidase 1; assay: Luminescence-based cell-based dose response assay to identify inhibitors of NADPH oxidase 1 (NOX1).; type: functional
[16] = target: T4, Alkaline phosphatase, tissue-nonspecific isozyme (Homo sapiens, UniProt P05186)
T4 sequence (P05186 whole entry): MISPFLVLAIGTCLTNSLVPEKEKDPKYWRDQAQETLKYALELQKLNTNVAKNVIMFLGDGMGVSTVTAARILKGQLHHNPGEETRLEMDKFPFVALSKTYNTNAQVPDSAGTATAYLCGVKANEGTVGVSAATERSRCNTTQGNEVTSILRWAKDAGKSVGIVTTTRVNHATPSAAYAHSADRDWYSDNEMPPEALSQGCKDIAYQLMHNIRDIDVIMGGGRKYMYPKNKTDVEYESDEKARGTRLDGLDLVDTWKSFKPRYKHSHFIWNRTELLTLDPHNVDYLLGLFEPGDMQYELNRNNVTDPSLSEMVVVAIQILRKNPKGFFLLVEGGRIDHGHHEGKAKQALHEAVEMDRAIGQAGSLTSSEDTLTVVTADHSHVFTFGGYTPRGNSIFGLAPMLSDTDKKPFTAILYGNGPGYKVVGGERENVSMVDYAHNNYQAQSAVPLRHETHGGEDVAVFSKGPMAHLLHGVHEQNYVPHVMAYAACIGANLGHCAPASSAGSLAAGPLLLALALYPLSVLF

[17] = inhibitors of intracellular T. cruzi replication, confirmation, NIH3T3 host cells, beta-gal luminescence (AID 2044); type: functional, cell-based;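 further: intracellular parasites grown in NIH/3T3 mouse fibroblasts as host cells; luminescent beta-galactosidase reporter signal from transgenic T. cruzi replicating inside host cells; inhibitors lower the luminescence signal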
[18] = cytotoxicity toward NIH3T3 fibroblasts, dose response, counter-screen, cell-based, ATP luminescence, mouse fibroblasts (AID 2010); type: functional;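 further: cells exposed to compound for about 90 hours before reading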
[19] = target: Intestinal-type alkaline phosphatase (Homo sapiens, UniProt P09923); assay: activation of human intestinal alkaline phosphatase – biochemical, dose response (AID 488873); type: functional
Sequence of Intestinal-type alkaline phosphatase (Homo sapiens, UniProt P09923) (P09923 whole entry): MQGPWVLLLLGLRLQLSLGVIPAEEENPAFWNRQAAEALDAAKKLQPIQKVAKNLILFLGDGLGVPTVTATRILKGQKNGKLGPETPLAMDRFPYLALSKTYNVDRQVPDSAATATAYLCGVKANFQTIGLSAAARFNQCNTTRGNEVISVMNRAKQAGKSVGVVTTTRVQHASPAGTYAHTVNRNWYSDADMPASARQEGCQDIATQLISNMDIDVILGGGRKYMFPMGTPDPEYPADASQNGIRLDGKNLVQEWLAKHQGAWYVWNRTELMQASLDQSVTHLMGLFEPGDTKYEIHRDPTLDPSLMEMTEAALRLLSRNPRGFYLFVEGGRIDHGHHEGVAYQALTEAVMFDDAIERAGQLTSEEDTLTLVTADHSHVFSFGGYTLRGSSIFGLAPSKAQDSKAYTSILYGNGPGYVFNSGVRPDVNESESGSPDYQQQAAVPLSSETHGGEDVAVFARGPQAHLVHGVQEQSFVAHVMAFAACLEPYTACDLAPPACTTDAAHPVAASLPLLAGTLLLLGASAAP

[20] = target: Intestinal-type alkaline phosphatase (Mus musculus, UniProt P24822); assay: PubChem AID 488785; type: functional
[21] = target: T4, Alkaline phosphatase, tissue-nonspecific isozyme; assay: TNAP enzyme inhibition by screening hits, dose response, selectivity assay for mouse IAP inhibitor project, biochemical, human TNAP, uHTS hits (AID 488906); type: functional
[22] = target: G2/mitotic-specific cyclin-B1 (Homo sapiens, UniProt P14635); assay: Counterscreen assay for inhibitors of Wee1 degradation: dose response cell-based assay to identify inhibitors of cyclin B degradation. [Related pubchem assays: 1410, 1321 ]; type: functional
Sequence of G2/mitotic-specific cyclin-B1 (P14635 whole entry): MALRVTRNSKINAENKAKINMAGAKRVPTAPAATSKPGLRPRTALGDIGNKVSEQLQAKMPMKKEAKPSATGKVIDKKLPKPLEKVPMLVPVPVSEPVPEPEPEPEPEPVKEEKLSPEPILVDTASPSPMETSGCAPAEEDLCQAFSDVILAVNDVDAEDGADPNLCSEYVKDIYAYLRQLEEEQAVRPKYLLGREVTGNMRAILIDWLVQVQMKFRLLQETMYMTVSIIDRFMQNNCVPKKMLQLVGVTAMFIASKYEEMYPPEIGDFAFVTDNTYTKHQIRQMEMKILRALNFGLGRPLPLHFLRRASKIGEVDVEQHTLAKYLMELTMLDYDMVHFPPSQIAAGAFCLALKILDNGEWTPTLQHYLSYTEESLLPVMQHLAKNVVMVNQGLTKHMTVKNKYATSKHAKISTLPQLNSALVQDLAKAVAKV

Wee1-like protein kinase = Wee1-like protein kinase (Homo sapiens, UniProt P30291); assay: Dose Response Cell-based Assay for Inhibitors of Wee1 Degradation. [Related pubchem assays: 1410, 1321 ]; type: functional
Sequence of Wee1-like protein kinase (P30291 whole entry): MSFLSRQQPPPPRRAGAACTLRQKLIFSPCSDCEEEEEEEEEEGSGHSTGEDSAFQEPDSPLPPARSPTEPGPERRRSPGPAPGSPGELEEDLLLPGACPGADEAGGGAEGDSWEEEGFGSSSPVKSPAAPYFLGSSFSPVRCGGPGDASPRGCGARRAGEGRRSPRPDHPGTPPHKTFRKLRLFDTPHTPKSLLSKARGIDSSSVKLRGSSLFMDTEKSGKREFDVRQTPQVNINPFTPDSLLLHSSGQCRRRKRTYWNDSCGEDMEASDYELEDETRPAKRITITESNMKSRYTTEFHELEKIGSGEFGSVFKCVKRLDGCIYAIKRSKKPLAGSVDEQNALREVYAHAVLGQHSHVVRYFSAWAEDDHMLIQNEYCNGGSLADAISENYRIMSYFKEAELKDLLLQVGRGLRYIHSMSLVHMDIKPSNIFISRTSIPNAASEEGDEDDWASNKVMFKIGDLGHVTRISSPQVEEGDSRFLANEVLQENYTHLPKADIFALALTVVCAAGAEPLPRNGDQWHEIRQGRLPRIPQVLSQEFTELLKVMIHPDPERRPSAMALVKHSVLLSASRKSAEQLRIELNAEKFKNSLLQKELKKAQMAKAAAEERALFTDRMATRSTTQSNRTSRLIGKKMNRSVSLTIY

Beta-galactosidase = Beta-galactosidase (Escherichia coli, UniProt Q8VNN2); assay: Dose response counterscreen for EBI2 assay utilizing the enzyme, b-galactosidase.; type: functional
Sequence of Beta-galactosidase (Q8VNN2 whole entry): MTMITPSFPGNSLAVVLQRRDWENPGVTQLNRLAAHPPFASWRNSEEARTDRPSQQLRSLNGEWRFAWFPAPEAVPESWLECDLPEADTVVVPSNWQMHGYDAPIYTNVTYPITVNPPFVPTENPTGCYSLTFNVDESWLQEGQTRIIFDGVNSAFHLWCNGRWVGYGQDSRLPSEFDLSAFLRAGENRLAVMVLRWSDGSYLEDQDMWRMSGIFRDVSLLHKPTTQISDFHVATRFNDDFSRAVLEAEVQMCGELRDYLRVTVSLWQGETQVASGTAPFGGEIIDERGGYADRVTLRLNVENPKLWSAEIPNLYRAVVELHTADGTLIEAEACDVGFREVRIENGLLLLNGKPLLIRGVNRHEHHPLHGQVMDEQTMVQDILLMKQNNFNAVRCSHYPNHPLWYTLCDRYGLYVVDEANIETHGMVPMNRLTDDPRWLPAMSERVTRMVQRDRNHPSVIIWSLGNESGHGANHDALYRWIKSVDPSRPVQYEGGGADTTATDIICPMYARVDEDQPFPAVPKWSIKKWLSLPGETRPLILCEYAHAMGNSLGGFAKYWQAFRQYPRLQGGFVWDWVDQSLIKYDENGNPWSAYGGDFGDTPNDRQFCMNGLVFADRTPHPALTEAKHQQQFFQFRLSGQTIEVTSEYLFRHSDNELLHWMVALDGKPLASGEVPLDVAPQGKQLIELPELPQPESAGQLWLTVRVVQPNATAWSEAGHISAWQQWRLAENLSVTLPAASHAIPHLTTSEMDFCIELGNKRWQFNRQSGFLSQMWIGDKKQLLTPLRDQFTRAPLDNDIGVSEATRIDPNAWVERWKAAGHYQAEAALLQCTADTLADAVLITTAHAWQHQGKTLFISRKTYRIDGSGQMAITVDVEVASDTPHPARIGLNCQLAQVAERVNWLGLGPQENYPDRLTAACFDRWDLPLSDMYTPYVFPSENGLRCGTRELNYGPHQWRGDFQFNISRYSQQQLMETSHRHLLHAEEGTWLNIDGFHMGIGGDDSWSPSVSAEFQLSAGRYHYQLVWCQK

[23] = enhancers of respiration in Yfh1-depleted yeast, dose response, Friedreich's ataxia, plus single-dose screen (AID 1465); type: functional;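 further: yeast depleted of Yfh1p frataxin homolog grown on glycerol needing respiration; WST-1 tetrazolium dye reduction as measure of cellular dehydrogenase metabolic activity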
[24] = Counterscreen for IDE inhibitors: Luminescence-based cell-based high throughput dose response assay to identify compounds that are cytotoxic to HEK cells. [Related pubchem assays: 434962 (Primary screen (IDE inhibitors in singlicate)), 449730 (Counterscreen (Cytotoxicity in triplicate)), 435028 (Confirmation (IDE inhibitors in triplicate)) …; type: functional; settings: HEK293
Insulin-degrading enzyme = target: T5, Insulin-degrading enzyme (Homo sapiens, UniProt P14735); assay: Dose Response: Fluorescence polarization-based cell-based high throughput dose response assay for inhibitors of insulin-degrading enzyme (IDE). [Related pubchem assays: 434962 (Primary screen (IDE inhibitors in singlicate)), 449730 (Counterscreen (Cytotoxicity in triplicate)), 435028 (Confirmation (IDE inhibitors in triplicate)), 434984 (Summary …; type: functional
T5 sequence (P14735 whole entry): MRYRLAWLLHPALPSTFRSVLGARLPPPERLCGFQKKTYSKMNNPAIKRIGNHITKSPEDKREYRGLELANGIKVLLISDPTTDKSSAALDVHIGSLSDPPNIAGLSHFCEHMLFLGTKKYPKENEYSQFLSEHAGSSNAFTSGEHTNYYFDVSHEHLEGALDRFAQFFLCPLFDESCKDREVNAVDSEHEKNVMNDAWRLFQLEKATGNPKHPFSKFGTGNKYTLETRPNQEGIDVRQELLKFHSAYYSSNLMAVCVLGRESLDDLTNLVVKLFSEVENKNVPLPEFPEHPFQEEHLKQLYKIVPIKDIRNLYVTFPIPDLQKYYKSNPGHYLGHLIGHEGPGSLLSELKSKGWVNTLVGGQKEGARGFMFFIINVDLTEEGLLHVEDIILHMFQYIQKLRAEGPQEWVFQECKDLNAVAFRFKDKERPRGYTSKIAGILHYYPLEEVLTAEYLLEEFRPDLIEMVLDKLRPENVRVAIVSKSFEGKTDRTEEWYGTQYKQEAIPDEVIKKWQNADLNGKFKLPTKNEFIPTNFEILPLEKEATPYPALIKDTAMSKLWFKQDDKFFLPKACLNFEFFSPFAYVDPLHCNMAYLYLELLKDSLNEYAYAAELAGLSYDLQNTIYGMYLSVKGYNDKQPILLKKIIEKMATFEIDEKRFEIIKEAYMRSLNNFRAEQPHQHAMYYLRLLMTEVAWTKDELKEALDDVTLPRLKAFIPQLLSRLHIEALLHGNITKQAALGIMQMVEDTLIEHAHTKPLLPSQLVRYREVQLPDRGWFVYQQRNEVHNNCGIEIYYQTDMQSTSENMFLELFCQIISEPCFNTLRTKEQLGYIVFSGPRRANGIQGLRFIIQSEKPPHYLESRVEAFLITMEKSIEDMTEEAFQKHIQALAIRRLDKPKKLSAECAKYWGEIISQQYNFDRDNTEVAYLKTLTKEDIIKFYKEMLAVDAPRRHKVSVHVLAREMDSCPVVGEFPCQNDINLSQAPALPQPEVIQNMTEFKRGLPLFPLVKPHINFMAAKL

[25] = target: T6, DNA repair protein RAD52 homolog (Homo sapiens, UniProt P43351); type: functional, biochemical
T6 sequence (P43351 whole entry): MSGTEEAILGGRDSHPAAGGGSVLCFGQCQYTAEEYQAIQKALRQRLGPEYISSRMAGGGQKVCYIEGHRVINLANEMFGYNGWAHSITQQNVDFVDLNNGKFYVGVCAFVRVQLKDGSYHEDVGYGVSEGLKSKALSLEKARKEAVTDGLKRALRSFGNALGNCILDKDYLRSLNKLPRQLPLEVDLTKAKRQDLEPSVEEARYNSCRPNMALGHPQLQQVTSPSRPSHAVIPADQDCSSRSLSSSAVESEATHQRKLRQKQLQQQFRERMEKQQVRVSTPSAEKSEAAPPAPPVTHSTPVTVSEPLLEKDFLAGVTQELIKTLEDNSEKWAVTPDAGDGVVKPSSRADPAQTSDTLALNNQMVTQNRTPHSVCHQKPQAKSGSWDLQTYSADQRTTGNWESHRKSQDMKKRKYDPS

CCc1cc(C(=O)O)c(NC(=O)C(c2ccccc2)c2ccccc2)s1
IC50 [1]: 23.2 µM (active)

CCOC(=O)c1ccc(NCc2ccc(N(C)C)cc2)cc1
IC50 [2]: > 100 µM (active)

CN(C)S(=O)(=O)c1cccc(-c2nn(-c3ccccc3)cc2/C=C2\SC(=S)N(CC(=O)O)C2=O)c1
IC50 [3]: 48.8 µM (active)
IC50 [4]: 4.8 µM (active)
AC50 [5]: 15.5 µM (active)
CC50 (Vero): > 40 µM (active)
IC50 (Genome polyprotein): 79.5 µM (active)

Cc1cc(C)nc(/N=C(\N)Nc2ccc(N)cc2)n1
EC50 (Bcl-2-like protein 10): 5.38 µM (active)

CCN(CC)CC#CCC(C)(c1ccccc1)c1ccccc1
IC50 [6]: < 12 µM (not active)
IC50 [7]: 6.17 µM (active)

Cc1ccc(C)c(C(=O)Cn2ncc(Cl)c(Cl)c2=O)c1
EC50 [8]: 3.56 µM (active)
EC50 [9]: 2.35 µM (active)
IC50 [10]: 2.99 µM (active)
IC50 [11]: 12.1 µM (not active)
AC50 [12]: 14.5 µM (active)
AC50 [13]: 8.4 µM (active)

COc1ccc2c(c1)S(=O)(=O)c1ccccc1N2
IC50 (NADPH oxidase 1 [14]): > 50 µM (not active)
IC50 (NADPH oxidase 1 [15]): > 20 µM (not active)

CC(C)c1ccc(NC(=O)NC2CCN(CC(=O)Nc3cccc4ccccc34)CC2)cc1
EC50 [16]: > 100 µM (not active)
EC50 [17]: 1.88 µM (active)
EC50 [18]: > 60 µM (inconclusive)
EC50 [19]: > 100 µM (inactive)
IC50 [20]: 10.8 µM (active)
IC50 [21]: 59.3 µM (active)

COC(=O)C1CCN(C(=O)/C=C/c2ccc(OC)cc2)CC1
EC50 [22]: > 49.7 µM (not active)
EC50 (Wee1-like protein kinase): > 49.7 µM (not active)
IC50 (Beta-galactosidase): > 80 µM (inactive)

CCN(CC)c1ccc2cc(C(N)=O)c(=N)oc2c1
EC50 [23]: > 100 µM (active)

CCOC(=O)c1c(C)n(Cc2ccccc2)c2ccc(OCC(O)CNC(C)(C)C)cc12 (stereo unspecified)
IC50 [24]: 14.5 µM (not active)
IC50 (Insulin-degrading enzyme): > 55.9 µM (not active)
AC50 [25]: 22 µM (active)
